Source: ChEMBL document CHEMBL5131491, “N6-modification of 7-Deazapurine nucleoside analogues as Anti-Trypanosoma cruzi and anti-Leishmania agents: Structure-activity relationship exploration and In vivo evaluation” (Eur J Med Chem, 2022)
Active and inactive are the calls of the source. The calls are words filed in the database; no cut-off is given here.

Tests used:
Leishmania infantum [1] = assay: Antileishmanial activity against extracellular Leishmania infantum […] PMM promastigotes assessed as reduction in parasite growth incubated for 96 hrs by light microscopy; format: functional, organism-based
[2] = Metabolic stability in mouse liver microsomes S9 fraction assessed as parent compound remaining at 5 uM incubated for 30 min in presence of UGT by liquid chromatography (reference value: 100 %); format: ADME, Microsome S9 fraction; conditions: read-out: Stability
[3] = Metabolic stability in hamster liver microsomes S9 fraction assessed as parent compound remaining at 5 uM incubated for 60 min in presence of NADPH by liquid chromatography (reference value: 100 %); format: ADME, Cricetulus griseus, Microsome S9 fraction; conditions: chinese hamster, read-out: Stability
[4] = Metabolic stability in mouse liver microsomes S9 fraction assessed as parent compound remaining at 5 uM incubated for 30 mins in presence of NADPH by liquid chromatography (reference value: 100 %); format: ADME, Microsome S9 fraction; conditions: read-out: Stability
[5] = Metabolic stability in human liver microsomes S9 fraction assessed as parent compound remaining at 5 uM incubated for 30 min in presence of UGT by liquid chromatography (reference value: 100 %); format: ADME, Microsome S9 fraction; conditions: read-out: Stability
Trypanosoma cruzi [6] = assay: Antitrypanosomal activity against Trypanosoma cruzi Y strain infected in acute CD Swiss Webster mouse model assessed as reduction in parasitemia at 12.5 mg/kg, po qd for 5 consecutive days by light microscopy relative to control; format: functional; parameters: scale not given: the % may be the effect or the level left; conditions: time 5 day
[7] = Toxicity in early curative hamster model assessed as severe toxicity at 50 mg/kg, po qd for 4 days measured on day 5; format: organism-based, Cricetulus griseus; conditions: chinese hamster, in vivo, 120 h, time 5 day
[8] = Metabolic stability in hamster liver microsomes S9 fraction assessed as parent compound remaining at 5 uM incubated for 15 min in presence of NADPH by liquid chromatography (reference value: 100 %); format: ADME, Cricetulus griseus, Microsome S9 fraction; conditions: chinese hamster, read-out: Stability
Trypanosoma cruzi [9] = assay: Antitrypanosomal activity against intracellular Trypanosoma cruzi Tulahuen amastigotes expressing CL2 beta-galactosidase in human MRC5 cells assessed as parasite growth inhibition using chlorophenol red beta-D-galactopyranoside as substrate treated for 7 days by spectrophotometry; format: functional, organism-based; conditions: MRC5, 168 h
[10] = Toxicity in acute CD Swiss Webster mouse model infected with Trypanosoma cruzi Y strain assessed as animal survival at 50 mg/kg, po qd for 5 consecutive days measured daily for upto 30 days post-treatment; format: organism-based; conditions: in vivo, 720 h, time < 30 day
Trypanosoma cruzi [11] = assay: Antitrypanosomal activity against Trypanosoma cruzi Y strain infected in acute CD Swiss Webster mouse model assessed as reduction in parasitemia at 25 mg/kg, po qd for 5 consecutive days by light microscopy relative to control; format: functional; parameters: scale not given: the % may be the effect or the level left; conditions: time 5 day
[12] = Metabolic stability in human liver microsomes S9 fraction assessed as parent compound remaining at 5 uM incubated for 60 min in presence of UGT by liquid chromatography (reference value: 100 %); format: ADME, Microsome S9 fraction; conditions: read-out: Stability
[13] = Metabolic stability in hamster liver microsomes S9 fraction assessed as parent compound remaining at 5 uM incubated for 60 min in presence of UGT by liquid chromatography (reference value: 100 %); format: ADME, Cricetulus griseus, Microsome S9 fraction; conditions: chinese hamster, 1 h
[14] = Metabolic stability in mouse liver microsomes S9 fraction assessed as parent compound remaining at 5 uM incubated for 15 min in presence of UGT by liquid chromatography (reference value: 100 %); format: ADME, Microsome S9 fraction; conditions: read-out: Stability
[15] = Metabolic stability in mouse liver microsomes S9 fraction assessed as parent compound remaining at 5 uM incubated for 60 min in presence of UGT by liquid chromatography (reference value: 100 %); format: ADME, Microsome S9 fraction; conditions: read-out: Stability
[16] = Metabolic stability in human liver microsomes S9 fraction assessed as parent compound remaining at 5 uM incubated for 60 min in presence of NADPH by liquid chromatography (reference value: 100 %); format: ADME, Microsome S9 fraction; conditions: read-out: Stability
[17] = Acute toxicity in acute CD Swiss Webster mouse model infected with Trypanosoma cruzi Y strain assessed as survival rate at 25 mg/kg, po administered for 5 consecutive days measured after 55 days post treatment (reference value: 100 %); format: organism-based; conditions: in vivo, time 55 day
[18] = Metabolic stability in mouse liver microsomes S9 fraction assessed as parent compound remaining at 5 uM incubated for 60 mins in presence of NADPH by liquid chromatography (reference value: 100 %); format: ADME, Microsome S9 fraction; conditions: read-out: Stability
[19] = Selectivity index, ratio of CC50 for human MRC-5 cells to EC50 for antitrypanosomal activity against intracellular Trypanosoma cruzi Tulahuen amastigotes expressing CL2 beta-galactosidase in human MRC5 cells; format: toxicity, cell-based; conditions: read-out: Selectivity Index
Leishmania infantum [20] = assay: Antileishmanial activity against intracellular Leishmania infantum MHOM/MA(BE)/67 amastigotes infected in Swiss mouse peritoneal macrophages assessed as parasite growth inhibition incubated for 5 days by giemsa staining based microscopic analysis; format: functional, organism-based; conditions: MHOM/MA(BE)/67, Macrophage, 120 h
[21] = Acute toxicity in acute CD Swiss Webster mouse model infected with Trypanosoma cruzi Y strain assessed as weight loss at 12.5 to 50 mg/kg, po qd administered for 5 consecutive days measured once a week; format: organism-based; conditions: in vivo, 120 h, dose 12.5-50 mg/kg, time 5 day
[22] = Toxicity in early curative hamster model assessed as weight loss at 50 mg/kg, po qd for 4 days measured on day 2; format: organism-based, Cricetulus griseus; conditions: chinese hamster, in vivo, 96 h, time 4 day
[23] = Cytotoxicity against human MRC5 fibroblast cells assessed as reduction in cell viability measured after 3 days by fluorometry; format: toxicity, cell-based; conditions: time 3 day
[24] = Metabolic stability in human liver microsomes S9 fraction assessed as parent compound remaining at 5 uM incubated for 15 min in presence of NADPH by liquid chromatography (reference value: 100 %); format: ADME, Microsome S9 fraction; conditions: read-out: Stability
Trypanosoma cruzi [25] = assay: Antitrypanosomal activity against Trypanosoma cruzi Y strain infected in acute CD Swiss Webster mouse model assessed as reduction in parasitemia at 50 mg/kg, po qd for 5 consecutive days by light microscopy relative to control; format: functional; parameters: scale not given: the % may be the effect or the level left; conditions: time 5 day
[26] = Selectivity index, ratio of CC50 for Swiss mouse peritoneal macrophages to EC50 for antileishmanial activity against intracellular Leishmania infantum MHOM/MA(BE)/67 amastigotes infected in Swiss mouse peritoneal macrophages; format: toxicity, cell-based; conditions: read-out: Selectivity Index
[27] = Toxicity in early curative hamster model assessed as clinical symptoms of toxicity at 50 mg/kg, po qd for 4 days; format: organism-based, Cricetulus griseus; conditions: chinese hamster, in vivo, 96 h, time 4 day
[28] = Acute toxicity in acute CD Swiss Webster mouse model infected with Trypanosoma cruzi Y strain assessed as maximum tolerated dose administered orally once daily for 5 consecutive days; conditions: in vivo, route po, time 5 day
[29] = Cytotoxicity against Swiss mouse peritoneal macrophages assessed as reduction in cell viability measured after 5 days by microscopic analysis; format: toxicity, cell-based, Macrophage; conditions: time 5 day
[30] = Metabolic stability in mouse liver microsomes S9 fraction assessed as parent compound remaining at 5 uM incubated for 15 mins in presence of NADPH by liquid chromatography (reference value: 100 %); format: ADME, Microsome S9 fraction; conditions: read-out: Stability
Trypanosoma cruzi [31] = assay: Antitrypanosomal activity against bloodstream extracellular Trypanosoma cruzi Y strain trypomastigotes assessed as reduction in parasite growth incubated for 96 hrs by light microscope; format: functional, organism-based
[32] = Metabolic stability in hamster liver microsomes S9 fraction assessed as parent compound remaining at 5 uM incubated for 15 min in presence of UGT by liquid chromatography (reference value: 100 %); format: ADME, Cricetulus griseus, Microsome S9 fraction; conditions: chinese hamster, read-out: Stability
[33] = Acute toxicity in acute CD Swiss Webster mouse model infected with Trypanosoma cruzi Y strain assessed as survival rate at 12.5 mg/kg, po administered for 5 consecutive days measured after 55 days post treatment (reference value: 100 %); format: organism-based; conditions: in vivo, time 55 day
[34] = Metabolic stability in human liver microsomes S9 fraction assessed as parent compound remaining at 5 uM incubated for 15 min in presence of UGT by liquid chromatography (reference value: 100 %); format: ADME, Microsome S9 fraction; conditions: read-out: Stability
Leishmania infantum [35] = assay: Antileishmanial activity against extracellular Leishmania infantum […] MIL5C13 promastigotes assessed as reduction in parasite growth incubated for 96 hrs by light microscopy; format: functional, organism-based
[36] = Metabolic stability in hamster liver microsomes S9 fraction assessed as parent compound remaining at 5 uM incubated for 30 min in presence of UGT by liquid chromatography (reference value: 100 %); format: ADME, Cricetulus griseus, Microsome S9 fraction; conditions: chinese hamster, read-out: Stability
[37] = Metabolic stability in human liver microsomes S9 fraction assessed as parent compound remaining at 5 uM incubated for 30 min in presence of NADPH by liquid chromatography (reference value: 100 %); format: ADME, Microsome S9 fraction; conditions: read-out: Stability
Leishmania infantum [38] = assay: Antileishmanial activity against extracellular Leishmania infantum LEM3323-C14 promastigotes assessed as reduction in parasite growth incubated for 96 hrs by light microscope; format: functional, organism-based; conditions: LEM3323-C14, 96 h
[39] = Metabolic stability in hamster liver microsomes S9 fraction assessed as parent compound remaining at 5 uM incubated for 30 min in presence of NADPH by liquid chromatography (reference value: 100 %); format: ADME, Cricetulus griseus, Microsome S9 fraction; conditions: chinese hamster, read-out: Stability
Trypanosoma cruzi [40] = assay: Antitrypanosomal activity against Trypanosoma cruzi Y strain infected in acute CD Swiss Webster mouse model assessed as reduction in parasitemia at 12.5 to 25 mg/kg, po qd administered for 5 consecutive days by light microscopy; format: functional, organism-based; conditions: dose 12.5-25 mg/kg, time 5.0 day

Structure (SMILES): CNc1ncnc2c1ccn2[C@@H]1O[C@H](CO)[C@@H](O)[C@H]1O
- EC50 (Leishmania infantum [1]): 2000 nM
- remaining at 0.5 h, 5 µM [2]: 105%
- remaining at 1 h, 5 µM [3]: 103%
- remaining at 0.5 h, 5 µM [4]: 96%
- remaining at 0.5 h, 5 µM [5]: 104%
- Activity (Trypanosoma cruzi [6]): 75%
- Activity [7]: Toxic
- remaining at 0.25 h, 5 µM [8]: 97%
- EC50 (Trypanosoma cruzi [9]): 450 nM
- Survival [10]: Toxic
- Activity (Trypanosoma cruzi [11]): 89%
- remaining at 1 h, 5 µM [12]: 104%
- Stability [13]: 116%
- remaining at 0.25 h, 5 µM [14]: 103%
- remaining at 1 h, 5 µM [15]: 98%
- remaining at 1 h, 5 µM [16]: 105%
- survival at 1320 h [17]: 66.7%
- remaining at 1 h, 5 µM [18]: 107%
- selectivity ratio [19]: > 142
- EC50 (Leishmania infantum [20]): 490 nM
- Activity [21]: Toxic
- Activity [22]: Toxic
- CC50 at 72 h [23]: > 64000 nM
- remaining at 0.25 h, 5 µM [24]: 108%
- Activity (Trypanosoma cruzi [25]): 96%
- selectivity ratio [26]: > 131
- Activity [27]: Toxic
- MTD at 120 h [28]: 12.5 mg/kg/day
- CC50 at 120 h [29]: > 64000 nM
- remaining at 0.25 h, 5 µM [30]: 96%
- EC50 (Trypanosoma cruzi [31]): > 24000 nM
- remaining at 0.25 h, 5 µM [32]: 102%
- survival at 1320 h [33]: 83.3%
- remaining at 0.25 h, 5 µM [34]: 99%
- EC50 (Leishmania infantum [35]): 2380 nM
- remaining at 0.5 h, 5 µM [36]: 102%
- remaining at 0.5 h, 5 µM [37]: 95%
- EC50 (Leishmania infantum [38]): 8000 nM
- remaining at 0.5 h, 5 µM [39]: 93%
- Activity (Trypanosoma cruzi [40]): Active
